Source: US11998539B2, “Substituted aminoquinolones as DGKalpha inhibitors for immune activation” (Bayer Aktiengesellschaft, priority 2019, dated 2024)

Target: DGKα (Homo sapiens (Human), UniProt P23743)
Assay: Human DGKα kinase activity inhibition assay (ADP-Glo)
Assay type: biochemical
Conditions: recombinant full-length human DGKα, 55 μM ATP, 7 μM 1,2-dioleoyl-sn-glycerol, read-out: IC50 values of examples in in vitro human DGKa kinase activity inhibition assays
Method in brief: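 Recombinant full-length human DGKα (C-terminal FLAG, from insect cells) phosphorylated 1,2-dioleoyl-sn-glycerol presented in octyl-glucopyranoside micelles. ADP formed was quantified by ADP-Glo luminescence. Compounds were added from 100-fold DMSO stocks.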

DGKα, sequence (P23743 other isoform, or with tags, fused parts or gaps): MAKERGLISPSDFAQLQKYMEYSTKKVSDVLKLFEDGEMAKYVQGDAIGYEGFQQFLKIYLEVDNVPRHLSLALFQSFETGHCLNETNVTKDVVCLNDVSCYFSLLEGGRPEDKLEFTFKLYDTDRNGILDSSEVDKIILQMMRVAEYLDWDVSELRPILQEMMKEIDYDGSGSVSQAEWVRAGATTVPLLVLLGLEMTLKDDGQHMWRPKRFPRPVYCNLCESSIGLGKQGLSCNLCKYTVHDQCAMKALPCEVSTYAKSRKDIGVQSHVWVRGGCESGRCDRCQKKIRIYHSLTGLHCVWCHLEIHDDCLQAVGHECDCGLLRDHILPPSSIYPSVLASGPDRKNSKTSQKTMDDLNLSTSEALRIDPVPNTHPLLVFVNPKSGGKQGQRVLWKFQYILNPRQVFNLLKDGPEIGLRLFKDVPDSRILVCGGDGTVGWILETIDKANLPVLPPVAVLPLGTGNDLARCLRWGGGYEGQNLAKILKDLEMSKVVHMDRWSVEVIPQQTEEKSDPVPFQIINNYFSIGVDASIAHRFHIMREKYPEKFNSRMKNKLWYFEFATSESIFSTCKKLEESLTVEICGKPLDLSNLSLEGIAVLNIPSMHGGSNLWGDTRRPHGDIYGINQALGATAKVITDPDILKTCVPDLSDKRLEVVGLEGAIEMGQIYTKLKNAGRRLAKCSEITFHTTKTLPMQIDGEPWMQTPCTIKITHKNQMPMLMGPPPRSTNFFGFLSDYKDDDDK

For `Cc1ccc2oc(C3CCN(c4c(C#N)c(=O)n(C)c5cc(O)c(Cl)cc45)CC3)nc2c1` [Example 567, 6-chloro-7-hydroxy-1-methyl-4-[4-(5-methyl-1,3-benzoxazol-2-yl)piperidin-1-yl]-2-oxo-1,2-dihydroquinoline-3-carbonitrile], the IC50 was 2 nM.

`CN(C)c1ccc(C2CCN(c3c(C#N)c(=O)n(C)c4ccccc34)CC2)cc1` [Example 46, 4-{4-[4-(dimethylamino)phenyl]piperidin-1-yl}-1-methyl-2-oxo-1,2-dihydroquinoline-3-carbonitrile] was tested, and the IC50 was 2.5 nM.

Work on `COc1ccc2oc(C3(F)CCN(c4c(C#N)c(=O)n(C)c5ccccc45)CC3)nc2c1` [Example 393, 4-[4-fluoro-4-(5-methoxy-1,3-benzoxazol-2-yl)piperidin-1-yl]-1-methyl-2-oxo-1,2-dihydroquinoline-3-carbonitrile] yielded an IC50 of 106 nM.

Compound `Cc1ccc2oc(C3CCN(c4c(C#N)c(=O)n(C)c5cc(C(F)(F)F)ccc45)CC3)nc2c1` [Example 289, 1-methyl-4-[4-(5-methyl-1,3-benzoxazol-2-yl)piperidin-1-yl]-2-oxo-7-(trifluoromethyl)-1,2-dihydroquinoline-3-carbonitrile] has an IC50 of 8.3 nM.

Work on `Cc1ccc2oc(C3(C)CCN(c4c(C#N)c(=O)n(C)c5c(Br)cccc45)CC3)nc2c1` [Example 158, 8-bromo-1-methyl-4-[4-methyl-4-(5-methyl-1,3-benzoxazol-2-yl)piperidin-1-yl]-2-oxo-1,2-dihydroquinoline-3-carbonitrile] yielded an IC50 of 304 nM.

With `Cc1ccc2oc(C3(C)CCN(c4c(C#N)c(=O)n(C)c5ccc(OC6CCC6)cc45)CC3)nc2c1` [Example 278, 6-(cyclobutyloxy)-1-methyl-4-[4-methyl-4-(5-methyl-1,3-benzoxazol-2-yl)piperidin-1-yl]-2-oxo-1,2-dihydroquinoline-3-carbonitrile] the IC50 was 480 nM.

`Cc1ccc2oc(C3CCN(c4c(C(N)=O)c(=O)n(C)c5cc(C(F)(F)F)ccc45)CC3)nc2c1` [Example 307, 1-methyl-4-[4-(5-methyl-1,3-benzoxazol-2-yl)piperidin-1-yl]-2-oxo-7-(trifluoromethyl)-1,2-dihydroquinoline-3-carboxamide] gave an IC50 of 5.7 nM.

In the case of `Cn1c(=O)c(C#N)c(N2CCC(c3ccn(-c4ccc(Cl)cc4)n3)CC2)c2ccccc21` [Example 369, 4-{4-[1-(4-chlorophenyl)-1H-pyrazol-3-yl]piperidin-1-yl}-1-methyl-2-oxo-1,2-dihydroquinoline-3-carbonitrile], the IC50 is reported as 14 nM.

Compound `Cc1ccc(-c2nnc(C3CCN(c4c(C(N)=O)c(=O)n(C)c5ccccc45)CC3)o2)cc1` [Example 462, 1-methyl-4-{4-[5-(4-methylphenyl)-1,3,4-oxadiazol-2-yl]piperidin-1-yl}-2-oxo-1,2-dihydroquinoline-3-carboxamide] has an IC50 of 121 nM.

Work on `COc1ccc2c(c1)c(N1CCC(c3nc(-c4cccc(C)c4)no3)CC1)c(C(N)=O)c(=O)n2C` [Example 520, 6-methoxy-1-methyl-4-{4-[3-(3-methylphenyl)-1,2,4-oxadiazol-5-yl]piperidin-1-yl}-2-oxo-1,2-dihydroquinoline-3-carboxamide] yielded an IC50 of 37 nM.

For `Cc1ccc2oc(C3CCN(c4c(C(N)=O)c(=O)n(C)c5cc(N(C)CC#N)ccc45)CC3)nc2c1` [Example 500, 7-[(cyanomethyl)(methyl)amino]-1-methyl-4-[4-(5-methyl-1,3-benzoxazol-2-yl)piperidin-1-yl]-2-oxo-1,2-dihydroquinoline-3-carboxamide], the IC50 was 0.7 nM.

`Cn1c(=O)c(C#N)c(N2CCC(c3nc4ccccc4s3)CC2)c2cccc(F)c21` [Example 154, 4-[4-(1,3-benzothiazol-2-yl)piperidin-1-yl]-8-fluoro-1-methyl-2-oxo-1,2-dihydroquinoline-3-carbonitrile] was tested, and the IC50 was 34 nM.

`COc1ccc2c(c1)c(N1CCC(C)(c3nc4ccc(C)cc4o3)CC1)c(C#N)c(=O)n2C` [Example 191, 6-methoxy-1-methyl-4-[4-methyl-4-(6-methyl-1,3-benzoxazol-2-yl)piperidin-1-yl]-2-oxo-1,2-dihydroquinoline-3-carbonitrile] was tested, and the IC50 was 7 nM.

`Cc1ccc2oc(C3CCN(c4c(C(N)=O)c(=O)n(C)c5cc(OCC6CO6)ccc45)CC3)nc2c1` (stereo not drawn) [Example 481, 1-methyl-4-[4-(5-methyl-1,3-benzoxazol-2-yl)piperidin-1-yl]-7-{[oxiran-2-yl]methoxy}-2-oxo-1,2-dihydroquinoline-3-carboxamide] showed an IC50 of 2 nM.

Compound `Cc1ccc(-c2csc(C3CCN(c4c(C(N)=O)c(=O)n(C)c5ccccc45)CC3)n2)cc1` [Example 478, 1-methyl-4-{4-[4-(4-methylphenyl)-1,3-thiazol-2-yl]piperidin-1-yl}-2-oxo-1,2-dihydroquinoline-3-carboxamide] has an IC50 of 9.4 nM.

Work on `Cn1c(=O)c(C#N)c(N2CCC(c3nc4ccccc4s3)CC2)c2cc(C#N)ccc21` [Example 176, 4-[4-(1,3-benzothiazol-2-yl)piperidin-1-yl]-1-methyl-2-oxo-1,2-dihydroquinoline-3,6-dicarbonitrile] yielded an IC50 of 3 nM.

`Cc1ccc2c(c1)c(N1CCC(c3nc4ccccc4o3)CC1)c(C#N)c(=O)n2C` [Example 165, 4-[4-(1,3-benzoxazol-2-yl)piperidin-1-yl]-1,6-dimethyl-2-oxo-1,2-dihydroquinoline-3-carbonitrile] was tested, and the IC50 was 2.6 nM.

`Cc1ccc2oc(C3CCN(c4c(C#N)c(=O)n(C)c5cc(OCC6CO6)ccc45)CC3)nc2c1` (stereo not drawn) [Example 384, 1-methyl-4-[4-(5-methyl-1,3-benzoxazol-2-yl)piperidin-1-yl]-7-{[oxiran-2-yl]methoxy}-2-oxo-1,2-dihydroquinoline-3-carbonitrile] showed an IC50 of 1.8 nM.

With `CC(C)c1ccc2oc(C3(C)CCN(c4c(C#N)c(=O)n(C)c5ccccc45)CC3)nc2c1` [Example 21, 1-methyl-4-{4-methyl-4-[5-(propan-2-yl)-1,3-benzoxazol-2-yl]piperidin-1-yl}-2-oxo-1,2-dihydroquinoline-3-carbonitrile] the IC50 was 5.2 nM.

With `Cn1c(=O)c(C#N)c(N2CCC(c3ccc(-c4ccccc4)cc3)CC2)c2ccccc21` [Example 53, 4-[4-([1,1′-biphenyl]-4-yl)piperidin-1-yl]-1-methyl-2-oxo-1,2-dihydroquinoline-3-carbonitrile] the IC50 was 13 nM.

`COc1ccc(C2CCN(c3c(C#N)c(=O)n(C)c4ccccc34)CC2)cn1` [Example 142, 4-[4-(6-methoxypyridin-3-yl)piperidin-1-yl]-1-methyl-2-oxo-1,2-dihydroquinoline-3-carbonitrile] was tested, and the IC50 was 58 nM.

`Cc1ccc2oc(C3CCN(c4c(C#N)c(=O)n(C)c5ccc(C(N)=O)cc45)CC3)nc2c1` [Example 404, 3-cyano-1-methyl-4-[4-(5-methyl-1,3-benzoxazol-2-yl)piperidin-1-yl]-2-oxo-1,2-dihydroquinoline-6-carboxamide] gave an IC50 of 5.3 nM.

In the case of `COc1cccc(C2CCN(c3c(C#N)c(=O)n(C)c4ccccc34)CC2)c1` [Example 55, 4-[4-(3-methoxyphenyl)piperidin-1-yl]-1-methyl-2-oxo-1,2-dihydroquinoline-3-carbonitrile], the IC50 is reported as 14 nM.

With `COc1ccc2c(c1)c(N1CCC(c3nc(-c4ccccc4C)no3)CC1)c(C(N)=O)c(=O)n2C` [Example 522, 6-methoxy-1-methyl-4-{4-[3-(2-methylphenyl)-1,2,4-oxadiazol-5-yl]piperidin-1-yl}-2-oxo-1,2-dihydroquinoline-3-carboxamide] the IC50 was 44 nM.

`Cn1c(=O)c(C#N)c(N2CCC(c3nc4ccccc4s3)CC2)c2cc(C3CC3)ccc21` [Example 276, 4-[4-(1,3-benzothiazol-2-yl)piperidin-1-yl]-6-cyclopropyl-1-methyl-2-oxo-1,2-dihydroquinoline-3-carbonitrile] gave an IC50 of 216 nM.

Compound `CCC1(c2nc3ccccc3o2)CCN(c2c(C#N)c(=O)n(C)c3ccccc23)CC1` [Example 106, 4-[4-(1,3-benzoxazol-2-yl)-4-ethylpiperidin-1-yl]-1-methyl-2-oxo-1,2-dihydroquinoline-3-carbonitrile] has an IC50 of 0.9 nM.

`Cc1ccc2c(c1)c(N1CCC(c3nc4cc(Cl)ccc4o3)CC1)c(C(N)=O)c(=O)n2C` [Example 201, 4-[4-(5-chloro-1,3-benzoxazol-2-yl)piperidin-1-yl]-1,6-dimethyl-2-oxo-1,2-dihydroquinoline-3-carboxamide] showed an IC50 of 1.1 nM.

`COc1ccc2c(N3CCC(c4nc5ccccc5s4)CC3)c(C#N)c(=O)n(C)c2c1` [Example 240, 4-[4-(1,3-benzothiazol-2-yl)piperidin-1-yl]-7-methoxy-1-methyl-2-oxo-1,2-dihydroquinoline-3-carbonitrile] gave an IC50 of 2.5 nM.

For `Cc1ccc2c(c1)c(N1CCC(c3nc4cc(C(C)C)ccc4o3)CC1)c(C#N)c(=O)n2C` [Example 186, 1,6-dimethyl-2-oxo-4-{4-[5-(propan-2-yl)-1,3-benzoxazol-2-yl]piperidin-1-yl}-1,2-dihydroquinoline-3-carbonitrile], the IC50 was 9.1 nM.

With `Cn1ccc2cc(C3CCN(c4c(C#N)c(=O)n(C)c5ccccc45)CC3)ccc21` [Example 50, 1-methyl-4-[4-(1-methyl-1H-indol-5-yl)piperidin-1-yl]-2-oxo-1,2-dihydroquinoline-3-carbonitrile] the IC50 was 8.3 nM.

`COc1cccc(-c2csc(C3CCN(c4c(C#N)c(=O)n(C)c5ccccc45)CC3)n2)c1` [Example 372, 4-{4-[4-(3-methoxyphenyl)-1,3-thiazol-2-yl]piperidin-1-yl}-1-methyl-2-oxo-1,2-dihydroquinoline-3-carbonitrile] was tested, and the IC50 was 14 nM.

Compound `Cn1c(=O)c(C#N)c(N2CCC(c3ccc4cc(C(F)F)cnc4c3)CC2)c2ccccc21` [Example 378, 4-{4-[3-(difluoromethyl)quinolin-7-yl]piperidin-1-yl}-1-methyl-2-oxo-1,2-dihydroquinoline-3-carbonitrile] has an IC50 of 23 nM.

`Cc1cc(C2(C)CCN(c3c(C#N)c(=O)n(C)c4ccccc34)CC2)nc2ccccc12` [Example 364, 1-methyl-4-[4-methyl-4-(4-methylquinolin-2-yl)piperidin-1-yl]-2-oxo-1,2-dihydroquinoline-3-carbonitrile] gave an IC50 of 34 nM.
